Source: patent publication US20250000834A1, “COMPOSITIONS AND METHODS FOR TARGETING GPCR FOR THE PREVENTION AND TREATMENT OF PAIN” (Duke University, priority 2021, published 2025)

Legend:
hGPR37L1 [1] = target: T1, hGPR37L1 (Homo sapiens, UniProt O60883); test: Lipid-coated bead pull-down assay with hGPR37L1-expressing cells; type: binding; parameters: expressed in transfected cells; host or cells: HEK293 Flp-In cells; details: Western blot
T1 sequence (O60883 26-481): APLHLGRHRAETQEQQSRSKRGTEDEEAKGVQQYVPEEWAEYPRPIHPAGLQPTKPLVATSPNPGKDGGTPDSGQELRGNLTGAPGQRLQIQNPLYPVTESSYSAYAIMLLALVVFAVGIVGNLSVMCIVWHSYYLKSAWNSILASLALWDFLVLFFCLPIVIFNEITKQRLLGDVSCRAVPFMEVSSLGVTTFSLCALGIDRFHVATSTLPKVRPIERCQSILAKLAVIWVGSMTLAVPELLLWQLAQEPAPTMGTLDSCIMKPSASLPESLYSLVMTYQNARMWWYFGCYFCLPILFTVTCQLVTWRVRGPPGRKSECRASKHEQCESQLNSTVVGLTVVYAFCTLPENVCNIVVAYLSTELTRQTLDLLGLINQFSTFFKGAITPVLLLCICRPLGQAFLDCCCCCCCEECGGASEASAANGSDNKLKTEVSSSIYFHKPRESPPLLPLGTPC
Experimental: Lipid pull-down assay: Isolated membrane proteins were pre-adsorbed to uncoated control agarose beads (Vector Laboratories, Burlingame, CA); the unbound fraction was collected and incubated 24 hrs at 4° C. with lipid-coated agarose beads (S. Bang et al., GPR37 regulates macrophage phagocytosis and resolution of inflammatory pain. J Clin Invest 128, 3568-3582 (2018)). After extensive washing, bound proteins were eluted from the lipid-coated beads, suspended in Laemmli buffer containing 2% SDS (w/v) and 0.3-M β-mercaptoethanol (Sigma-Aldrich, St. Louis, MO), and heated 5 min at 95° C. to dissolve proteins before separation on 4-20% polyacrylamide/SDS gels as outlined above. The lysate proteins were detected by western blot.
Western blot: GPR37L1 proteins were isolated from transfected cells, lipid pull-down beads, and mouse DRG. The cells were placed on ice, washed with ice-cold phosphate-buffered saline (PBS), and harvested with ice-cold RIPA buffer (Sigma-Aldrich, St. Louis, MO) with Protease Inhibitor Cocktail Tablet (pH 7.4) (Roche Diagnostics, Indianapolis, IN). The cell lysates were centrifugated for removing insoluble debris and were calculated by BCA assay for detection of protein level, and the supernatant was mixed with 4× Laemmli buffer (Bio-Rad, Hercules, CA) and boiling. Protein samples were […] on 4-15% gradient SDS-PAGE gel (Bio-Rad, Hercules, CA) and blotted on PVDF membrane (Bio-Rad, Hercules, CA). Ponceau S staining was used for the detection of total proteins. The primary antibody was incubated with PBS+1% BSA at 4° C. overnight. We used the following primary antibodies: anti-GPR37L1 antibody (Bioss (Woburn, MA), Rabbit, 1:1000, #bs-15390R); anti-GAPDH antibody (Proteintech (Rosemont, IL), mouse, 1:2000, #60004); and anti-flag antibody (Cell Signaling Technologies (Danvers, MA), Rabbit, 1:1000, #14793). Blots were further incubated with an […] secondary anti-rabbit antibody (Jackson ImmunoResearch Laboratories (West Grove, PA), donkey, 1:5000), developed in ECL solution (Pierce Biotechnology, Appleton, WI)), and visualized in ChemiDoc XRS (Bio-Rad, Hercules, CA). Protein signal intensity was quantified by Image J software (NIH).
Next, a lipid-coated bead pull-down assay with hGPR37L1-expressing cells was used to confirm whether MaR1 would interact with GPR37L1 protein selectively. […] The right molecule size of GPR37L1 (˜50 kDa) was also validated by the anti-FLAG antibody (data not shown; see U.S. Prov. No. 63/270,198, FIG. 3E).

hGPR37L1 [2] = target: T1, hGPR37L1; test: Beta-arrestin assay (PathHunter hGPR37L1 CHO-K1); type: cell-based; details: hGPR37L1 ChoK1 cells
Experimental: Beta-arrestin assay: To screen for GPR37L1 ligands, the PathHunter® eXpress GPR37L1 CHO-K1 kit was purchased from Eurofins Discoveryone™ (DiscoverX Solutions for Drug Discovery, Fremont, CA; Cat #93-0378E2ACP1M). CHO-K1 cells express human GPR37L1 and were grown in 96-well plates for 48 hours. Lipid compounds were incubated with the ChoK1 cells for 1 hour at 37° C., and GPR37L1 activation was determined by measuring chemiluminescence using the beta-arrestin 2 (β-arrestin) detection kit (DiscoverX Solutions for Drug Discovery, Fremont, CA). The luminescent activity was measured using an Infinite F200 Pro Illuminometer (Tecan Trading AG, Switzerland).
Eight different concentrations of compounds ranging from 0.1 nM to 100 nM were tested.

GPR37L1 = test: Lipid overlay assay on MaR1-coated PVDF membrane with mouse DRG lysates; type: binding; details: Gpr37l1 KO DRG lysate
Experimental: Lipids overlay assay: Lipids membrane coating and protein overlay assay were performed as previously described (S. Dowler, et al., Protein lipid overlay assay. Sci STKE 2002, p 16 (2002)). […] Compound-coated membranes were dried and blocked with 1% BSA. The coated membranes were incubated with lysates obtained from hGPR37L1-transfected HEK293 cells or mouse DRG lysate from WT or Gpr37l1 KO mice for 2 hours, followed by detection using an anti-GRP37L1 antibody (Bioss (Woburn, MA), Rabbit, 1:1000, #bs-15390R) or anti-flag antibody (Cell Signaling Technology (Danvers, MA), Rabbit, 1:1000, #14793). Blots were further incubated with an HRP-conjugated secondary anti-rabbit antibody (Jackson ImmunoResearch Laboratories (West Grove, PA), raised in donkey, 1:5000), developed in ECL solution (Pierce Biotechnology, Waltham, MA), and the signal was visualized from ChemiDoc XRS (Bio-Rad, Hercules, CA). The signal Intensity was quantified by Image J software (NIH).
To confirm whether DRG-expressed GPR37L1 would also interact with MaR1, a lipid overlay assay was performed on MaR1-coated PVDF membrane using DRG lysates from WT or Gpr37l1 KO mice. To determine dose-dependent binding, MaR1 was coated at the concentrations of 0.01 nM, 0.1 nM, 1 nM, and 10 nM.

GPR37L1 binding in lipid-coated bead pull-down extracts (hGPR37L1 [1]): Strong GPR37L1 binding | potency relative to TX14 in β-arrestin 2 assay (hGPR37L1 [2]): 10 times | β-arrestin signaling (hGPR37L1 [2]; 0.1 nM to 100 nM, n=6): 3.64 fold increase | EC50 (hGPR37L1 [2]; n=6, read-out: EC50 of β-arrestin response): 0.97 nM | binding spot in lipid overlay assay (GPR37L1): completely absent
SMILES: CC/C=C\C/C=C\C[C@H](O)\C=C/C=C/C=C/[C@H](O)C/C=C\CCC(=O)O [MaR1, Maresin 1]
